Source: the OPERA property sets (Mansouri et al. 2018)

conditions: not given

SMILES	melting point	log10 Henry constant (atm·m³/mol)	log10 Koa	log10 vapour pressure (mmHg)	boiling point	log10 Koc (L/kg)	ready biodegradability	log10 biodegradation half-life (days)
NC(=O)c1ccc(N)nc1	246 °C							
Cl.N=C(N)N	182 °C							
O=C(NC(=O)c1ccccc1)c1ccccc1	152 °C							
Clc1ccc(-c2cc(Cl)ccc2Cl)c(Cl)c1		-3.68	8.39	-5.07				
CC(Cl)C(C)Cl (stereo not drawn)	-80 °C			1.39	118 °C			
Clc1ccc(Cl)c(-c2cccc(Cl)c2Cl)c1		-3.85	8.36					
c1ccc2c(c1)ccc1ccc3ccccc3c12	68 °C							
C=C(C)[C@H]1CCC(C)=C[C@@H]1c1c(O)cc(CCCCC)cc1O	67 °C							
COC(=O)C(C)N(C(=O)Cc1ccccc1)c1c(C)cccc1C (stereo not drawn)	79 °C			-5		3.54		
O=C(CCC(=O)OCc1ccccc1)OCc1ccccc1	49.5 °C							
Cc1ccc2oc(C)nc2c1					218 °C			
CCCC(C)=C(C)C	-115 °C			1.26	122 °C			
CCCCC(CC)COC(=O)/C=C/C(=O)OCC(CC)CCCC (stereo not drawn)	-10 °C				300 °C			
FC(Cl)(Cl)I	-107 °C				90 °C			
O=C1CN(N=Cc2ccc(-c3ccc([N+](=O)[O-])cc3)o2)C(=O)N1	280 °C							
CCC(C)C(C)(C)C(C)C (stereo not drawn)					165 °C			
C1=CCC1					2 °C			
CCOC(=O)C1(S(=O)(=O)c2ccc(C)cc2)CCC1	53.5 °C							
Clc1cccc(-c2c(Cl)ccc(Cl)c2Cl)c1Cl			8.8					
COc1cc(C=O)ccc1O[C@@H]1O[C@H](CO)[C@@H](O)[C@H](O)[C@H]1O	189 °C							
Nc1cccc(Cl)c1C(=O)O	159 °C							
Cl.Cl.O=C1c2c(O)ccc(O)c2C(=O)c2c(NCCNCCO)ccc(NCCNCCO)c21	204 °C							
Clc1cc(-c2cc(Cl)c(Cl)c(Cl)c2Cl)c(Cl)c(Cl)c1Cl		-5				6.41		
CCOP(=O)(OCC)OCC	-56.4 °C	-7.44		-0.406	216 °C		not readily biodegradable	
C1=CCCCCC1	-56 °C				115 °C			

SMILES	melting point	log10 Henry constant (atm·m³/mol)	log10 Koa	log10 vapour pressure (mmHg)	boiling point	log10 Koc (L/kg)	ready biodegradability	log10 biodegradation half-life (days)
CC1=CC(=O)CC1					158 °C			
N#CI	147 °C							
CC(=O)N(O)CCCCCNC(=O)CCC(=O)N(O)CCCCCNC(=O)CCC(=O)N(O)CCCCCN	140 °C							
C=C(C)CNc1ccc(C(C)C(=O)O)cc1 (stereo not drawn)	107 °C							
N#CC(Br)(Br)C(N)=O	124 °C			-3.05			not readily biodegradable	
O=[N+]([O-])c1ccc(F)cc1O	36 °C	-4.71		-1.64				
O=[N+]([O-])c1ccc(Oc2c(Cl)cc(Cl)cc2Cl)cc1	106 °C					3.9	not readily biodegradable	
C=CC(CC)CCC (stereo not drawn)					110 °C			
O=[N+]([O-])c1ccsc1	78.5 °C				225 °C			
CCCCC(CC)CN1C(=O)C2C3C=CC(C3)C2C1=O (stereo not drawn)				-4.74				
Cc1cccc(C(=O)N(NC(=O)c2ccccc2)C(C)(C)C)c1	211 °C							
O=[N+]([O-])c1cccc2c(Cl)cccc12	111 °C							
CCCCC(C(=O)O)C(=O)N(Nc1ccccc1)c1ccccc1 (stereo not drawn)	116 °C							
COC(=O)Nc1cccc(OC(=O)Nc2cccc(C)c2)c1	143 °C			-11		3.38		
c1cn[nH]c1	68 °C				187 °C			
CC(C)(O)c1ccccc1	36 °C				202 °C			
CCC(C)[N+](=O)[O-] (stereo not drawn)				0.891	140 °C			
Nc1ccc(S(=O)(=O)Nc2nccs2)cc1	189 °C							
CCc1ccc(Cc2ccccc2)cc1	-24 °C				297 °C			
CCCc1ccccc1	-99.5 °C	-1.98	4.09	0.534	159 °C	2.87	readily biodegradable	0.602
CC(C)=NNC(N)=S							not readily biodegradable	
CCCCCCC(O)CCCC (stereo not drawn)	-3.5 °C				229 °C			
Cc1ncc(CO)c(CO)c1O.Cl	207 °C							
Nc1ncnc(Nc2ccccc2)n1	236 °C							
C#CC(C)(O)c1ccccc1 (stereo not drawn)	52.3 °C				218 °C			

SMILES	melting point	log10 Henry constant (atm·m³/mol)	log10 Koa	log10 vapour pressure (mmHg)	boiling point	log10 Koc (L/kg)	ready biodegradability	log10 biodegradation half-life (days)
CC(=O)[C@H]1CC[C@H]2[C@@H]3C=CC4=CC(=O)CC[C@@]4(C)[C@@H]3CC[C@]12C	170 °C							
Nc1cccc2cccnc12	70 °C							
Oc1ccc(Br)cc1Cl	50.5 °C				234 °C			
CC(C)C(Cl)Cl				1.6	106 °C			
CC(=O)O[C@@H]1CC2CCC1(C)C2(C)C (stereo partly drawn)	29 °C			-0.642	221 °C			
COC=Cc1ccccc1					212 °C			
CCCOC(=O)CC	-75.9 °C			1.14	122 °C			
O=Cc1cc(Cl)ccc1Cl	58 °C				232 °C			
COc1cc2cc(c1Cl)N(C)C(=O)C[C@H](OC(=O)[C@H](C)N(C)C(C)=O)[C@]1(C)O[C@H]1[C@H](C)[C@@H]1C[C@@](O)(NC(=O)O1)C(OC)C=CC=C(C)C2 (stereo partly drawn)	172 °C							
CNc1ccccc1[N+](=O)[O-]	38 °C							
O=C(OCC1(COC(=O)c2cccnc2)CCCC(COC(=O)c2cccnc2)(COC(=O)c2cccnc2)C1O)c1cccnc1	178 °C							
Cc1ccncc1C	-11 °C	-5.43		0.092	179 °C			
ClC[Si](Cl)(Cl)Cl					118 °C			
COc1ccccc1CCN					236 °C			
Nc1ncnc2c1ncn2[C@@H]1O[C@H](CO)[C@@H](O)[C@H]1O	246 °C							
O=C(O)CCC(=O)c1ccc(-c2ccccc2)cc1	186 °C							
Cc1ccc[n+]([O-])c1	39 °C							
CCOC(=O)C(C(=O)OCC)C(C)C					215 °C			
CCCCOC(=O)c1ccc(N)cc1	58 °C							
CCN(C=O)CC				0.0821	178 °C			
CCC(C)c1cc([N+](=O)[O-])cc([N+](=O)[O-])c1OC(=O)C=C(C)C (stereo not drawn)	70 °C			-6.5				
COc1ccc(C)cc1OC	24 °C				220 °C			
CC(O)CN(CC(C)O)CC(C)O (stereo not drawn)	45 °C				305 °C		not readily biodegradable	
Cc1ccc2c(c1Cl)C(=O)c1ccccc1C2=O	170 °C							
C=CC(C)CCC=C(C)C (stereo not drawn)							readily biodegradable	

SMILES	melting point	log10 Henry constant (atm·m³/mol)	log10 Koa	log10 vapour pressure (mmHg)	boiling point	log10 Koc (L/kg)	ready biodegradability	log10 biodegradation half-life (days)
CCCCCCCCCC1CCCCC1	-10 °C			-2.61	282 °C			
CCc1cccc(N)c1	-64 °C				214 °C			
Cc1ccc(Cl)c(Cl)c1	-15.2 °C			-0.502	209 °C			
COc1ccc(C(=O)CCC(=O)O)cc1	149 °C							
O=C(Cn1c(=O)sc2ccc(Cl)cc21)N1CCN(CCO)CC1	160 °C							
O=[N+]([O-])c1cc(Br)ccc1O	92 °C							
C=Cc1ccccc1Br	-52.5 °C				209 °C			
ClCOCCl	-41.5 °C			1.47	106 °C			
CC=Cc1cccc(OC)c1O	81 °C				268 °C			
C[Si](Cl)(Cl)Cl	-90 °C			2.22	65.6 °C			
Cc1c(N)cccc1[N+](=O)[O-]	92 °C				305 °C			
C[C@]12CC[C@H]3[C@@H](CCC4=CC(=O)CC[C@@]43C)[C@@H]1CC[C@@H]2C(=O)CO	142 °C							
O=C(O)CCCl	41 °C				156 °C			
CCC(=O)OCC1CCCO1 (stereo not drawn)					206 °C			
CCCCCCCCCCCCS	-8 °C			-2.07	274 °C			
CCC(CC)C(=O)Cl					140 °C			
CCC(Cl)CC	-105 °C			1.67	97.5 °C			
COc1ccc2c(=O)c(C)c(-c3ccccc3)oc2c1CN(C)C	110 °C							
FCCCl	-50 °C				53.1 °C			
Clc1cc(Cl)c(-c2ccc(Cl)c(Cl)c2)c(Cl)c1		-4.13						
Nc1cnn(-c2ccccc2)c(=O)c1Cl	205 °C			-6.35		2.08		
CC(=O)Nc1cccnc1	133 °C				326 °C			
CCOC(=O)CC(=O)C(C)C	-9 °C				173 °C			
CCOC(=O)C(C)C(C)=O (stereo not drawn)					187 °C			
OCc1ccco1	-14.6 °C			-0.215	171 °C		readily biodegradable	

SMILES	melting point	log10 Henry constant (atm·m³/mol)	log10 Koa	log10 vapour pressure (mmHg)	boiling point	log10 Koc (L/kg)	ready biodegradability	log10 biodegradation half-life (days)
NCCc1ccc(O)c(O)c1	128 °C							
CC(C)C1=CC(O)C(C)CC1 (stereo not drawn)					220 °C			
O=c1ccc(=O)[nH][nH]1	306 °C					0.45	readily biodegradable	
Cc1ccc(O)c(-n2nc3ccccc3n2)c1	132 °C							
COc1ccc2c(c1)CCCC2=O	78 °C							
C=CCc1cccc(C)c1O					232 °C			
CC(C)=CC(=O)NS(=O)(=O)c1ccc(N)cc1	184 °C							
COc1ccc(C=O)cc1	0 °C			-1.48	248 °C		readily biodegradable	
C#CC(C)(C)NC(=O)c1ccc(Br)cc1						2.01		
Oc1ccc(/N=N/c2ccccc2)cc1	155 °C			-6.64				
Cc1cc(NC(N)=O)ccc1Br						2.37		
CC(C)(C)CC(=O)Cl					130 °C			
O=C(O)Cc1cccc2ccccc12	135 °C					2.2	not readily biodegradable	
CC(=O)OCCOCCOCCOC(C)=O	-50 °C				286 °C			
O=C(O)/C=C/CCCCCCCCC(=O)O	166 °C							
O=C(O)[C@H]1CC[C@H](C(=O)O)CC1	312 °C							
COc1ccccc1N=Nc1ccccc1	41 °C							
COc1ccc(Cl)cc1					198 °C			
Clc1ccc(Br)cc1	68 °C			-0.588	196 °C			
CCCCC(C)CCC (stereo not drawn)	-113 °C			0.835	142 °C			0.699
CCCCC(C)C(C)=O (stereo not drawn)					164 °C			

same assay, conditions: fish

SMILES	log10 BCF	log10 biotransformation half-life (days)
Clc1ccc(Cl)c(-c2cccc(Cl)c2Cl)c1	4.84	2.33
Clc1cc(-c2cc(Cl)c(Cl)c(Cl)c2Cl)c(Cl)c(Cl)c1Cl		3
CCOP(=O)(OCC)OCC	0.11	-1.09
O=[N+]([O-])c1ccc(Oc2c(Cl)cc(Cl)cc2Cl)cc1	3.31	0.75
CC(O)CN(CC(C)O)CC(C)O (stereo not drawn)	-0.24	
O=C(O)Cc1cccc2ccccc12	0.47	
